Test results taken from ChEMBL document CHEMBL5131431, “Effect of removal of the 14-hydroxy group on the affinity of the 4,5-epoxymorphinan derivatives for orexin and opioid receptors” (Bioorg Med Chem Lett, 2022).

Tests used:
[1] = biological target: T1, Orexin/Hypocretin receptor type 1 (Homo sapiens, UniProt O43613); assay: Binding affinity to OX1R (unknown origin) by calcium assay
T1 sequence (O43613 whole entry): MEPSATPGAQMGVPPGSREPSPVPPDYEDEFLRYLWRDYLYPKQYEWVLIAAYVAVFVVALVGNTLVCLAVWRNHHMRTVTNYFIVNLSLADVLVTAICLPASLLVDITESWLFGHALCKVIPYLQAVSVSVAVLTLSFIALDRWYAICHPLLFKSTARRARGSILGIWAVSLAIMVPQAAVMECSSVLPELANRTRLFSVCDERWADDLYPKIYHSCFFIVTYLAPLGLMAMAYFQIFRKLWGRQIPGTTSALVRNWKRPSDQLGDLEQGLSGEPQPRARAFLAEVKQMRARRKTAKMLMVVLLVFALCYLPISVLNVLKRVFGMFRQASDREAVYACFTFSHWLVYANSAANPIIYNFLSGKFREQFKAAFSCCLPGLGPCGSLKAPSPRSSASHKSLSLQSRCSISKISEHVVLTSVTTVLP

Mu-type opioid receptor = Mu-type opioid receptor (Homo sapiens, UniProt P35372); assay: Displacement of [3H]DAMGO from human MOR expressed in HEK293 cell membrane; format: cell membranes
Mu-type opioid receptor, sequence (P35372 whole entry): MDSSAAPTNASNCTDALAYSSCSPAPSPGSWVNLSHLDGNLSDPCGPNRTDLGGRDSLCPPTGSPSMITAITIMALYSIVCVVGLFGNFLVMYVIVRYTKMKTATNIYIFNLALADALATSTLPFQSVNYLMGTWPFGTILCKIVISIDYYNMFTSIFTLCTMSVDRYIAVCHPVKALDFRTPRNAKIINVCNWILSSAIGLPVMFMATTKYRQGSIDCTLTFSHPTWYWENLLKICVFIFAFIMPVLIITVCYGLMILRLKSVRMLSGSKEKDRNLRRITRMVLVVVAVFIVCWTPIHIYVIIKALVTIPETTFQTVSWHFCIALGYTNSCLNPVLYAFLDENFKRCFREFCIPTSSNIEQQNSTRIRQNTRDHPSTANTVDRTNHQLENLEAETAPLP

[2] = biological target: Kappa-type opioid receptor (Homo sapiens, UniProt P41145); assay: Displacement of […] from human KOR expressed in HEK293 cell membrane; format: cell membranes
Kappa-type opioid receptor, sequence (P41145 whole entry): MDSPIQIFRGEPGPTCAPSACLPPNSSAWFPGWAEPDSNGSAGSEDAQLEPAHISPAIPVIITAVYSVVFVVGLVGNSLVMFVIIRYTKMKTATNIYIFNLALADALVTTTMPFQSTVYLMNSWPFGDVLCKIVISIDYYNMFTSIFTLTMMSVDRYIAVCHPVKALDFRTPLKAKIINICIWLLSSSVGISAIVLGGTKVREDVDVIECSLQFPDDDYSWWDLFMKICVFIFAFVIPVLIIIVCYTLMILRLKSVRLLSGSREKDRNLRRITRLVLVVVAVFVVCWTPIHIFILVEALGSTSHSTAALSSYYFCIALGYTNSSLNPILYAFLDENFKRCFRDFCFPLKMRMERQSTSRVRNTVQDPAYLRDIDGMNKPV

[3] = biological target: Delta-type opioid receptor (Homo sapiens, UniProt P41143); assay: Displacement of […] from human DOR expressed in HEK293 cell membrane; format: cell membranes
Delta-type opioid receptor, sequence (P41143 whole entry): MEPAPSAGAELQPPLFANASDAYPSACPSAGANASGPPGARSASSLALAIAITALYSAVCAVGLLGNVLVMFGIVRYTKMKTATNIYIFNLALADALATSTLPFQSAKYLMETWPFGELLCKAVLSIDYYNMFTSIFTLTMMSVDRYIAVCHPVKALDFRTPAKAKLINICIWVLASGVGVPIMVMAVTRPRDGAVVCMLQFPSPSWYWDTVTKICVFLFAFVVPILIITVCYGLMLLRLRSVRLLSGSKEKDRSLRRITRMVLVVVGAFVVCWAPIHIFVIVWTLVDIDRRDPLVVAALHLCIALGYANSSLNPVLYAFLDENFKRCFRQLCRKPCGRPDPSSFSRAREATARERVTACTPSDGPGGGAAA

Homo sapiens [4] = species on record: Homo sapiens; assay: Selectivity index, ratio of Ki for displacement of [3H]DAMGO from human MOR expressed in HEK293 cell membrane to displacement of […] from human KOR expressed in HEK293 cell membrane
Homo sapiens [5] = species on record: Homo sapiens; assay: Selectivity index, ratio of Ki for displacement of […] from human DOR expressed in HEK293 cell membrane to displacement of […] from human KOR expressed in HEK293 cell membrane

SMILES | Ki [1] [nM] | IC50 [1] [nM] | Ki (Mu-type opioid receptor) [nM] | Ki [2] [nM] | Ki [3] [nM] | Ratio Ki (Homo sapiens [4]) | Ratio Ki (Homo sapiens [5])
COc1ccc2c3c1O[C@H]1[C@H](N(C)C(=O)/C=C/c4ccoc4)CC=C4[C@@H](C2)N(CC2CC2)CC[C@]431 | 19 |  |  |  |  |  | 
COc1ccc2c3c1O[C@H]1[C@H](N(C)C(=O)/C=C/c4ccoc4)CCC4[C@@H](C2)N(CC2CC2)C[C@@]341 (some centres undefined) |  | > 10000 |  |  |  |  | 
CN(C(=O)/C=C/c1ccoc1)[C@@H]1CCC2[C@H]3Cc4ccc(O)c5c4[C@@]2(CN3CC2CC2)[C@H]1O5 (some centres undefined) |  | > 10000 | > 10000 | 283 | > 10000 |  | 
CN(C(=O)/C=C/c1ccoc1)[C@@H]1CC[C@@]2(O)[C@H]3Cc4ccc(O)c5c4[C@@]2(CCN3CC2CC2)[C@H]1O5 [NALFURAFINE] |  |  | 0.7 |  | 36.5 |  | 
CN(C(=O)/C=C/c1ccoc1)[C@@H]1CC=C2[C@H]3Cc4ccc(O)c5c4[C@@]2(CN3CC2CC2)[C@H]1O5 |  | > 10000 | > 10000 | 1410 | > 10000 |  | 
CN(C(=O)/C=C/c1ccoc1)[C@@H]1CCC2[C@H]3Cc4ccc(O)c5c4[C@@]2(CCN3CC2CC2)[C@H]1O5 (some centres undefined) | 218 |  | 0.158 | 0.0272 | 9.76 | 5.8 | 359
CN(C(=O)/C=C/c1ccoc1)[C@@H]1CC[C@@]2(O)[C@H]3Cc4ccc(O)c5c4[C@@]2(CN3CC2CC2)[C@H]1O5 |  |  | > 5000 | > 5000 | > 5000 |  | 
CN(C(=O)/C=C/c1ccoc1)[C@@H]1CC=C2[C@H]3Cc4ccc(O)c5c4[C@@]2(CCN3CC2CC2)[C@H]1O5 | 30.5 |  | 3.57 | 0.0356 | 26.3 | 100 | 739
COc1ccc2c3c1O[C@H]1[C@H](N(C)C(=O)/C=C/c4ccoc4)CC=C4[C@@H](C2)N(CC2CC2)C[C@]431 |  | > 10000 |  |  |  |  | 
COc1ccc2c3c1O[C@H]1[C@H](N(C)C(=O)/C=C/c4ccoc4)CCC4[C@@H](C2)N(CC2CC2)CC[C@@]341 (some centres undefined) | 28.7 |  |  |  |  |  | 
